Reference: ChEMBL document CHEMBL2216752, “Carnitine palmitoyltransferase (CPT) modulators: a medicinal chemistry perspective on 35 years of research” (J Med Chem, 2011)

Assays:
[1] = organism: Homo sapiens; test: Increase in left ventricular ejection fraction in CHF patient at 80 mg/day for 3 months; format: functional, Heart left ventricle
[2] = organism: Homo sapiens; test: Increase in stroke volume in CHF patient at 80 mg/day for 3 months; format: functional
[3] = organism: Homo sapiens; test: Increase in maximum cardiac output in CHF patient at 80 mg/day for 3 months measured during exercise; format: functional
[4] = test system: Homo sapiens; test: Increase in glucose MCR in NIDD patient at 50 mg, po administered as single dose; format: functional
[5] = test system: Homo sapiens; test: Reduction in whole body fat oxidation in human at 600 mg, po for 5 days; format: functional; set-up: scale not given: the % may be the effect or the level left
[6] = test system: Homo sapiens; test: Reduction in fat oxidation in NIDD patient at 100 mg/day, po for 3 days administered as single dose; format: functional; set-up: scale not given: the % may be the effect or the level left
[7] = test system: Homo sapiens; test: Reduction in glucose appearance rate in NIDD patient at 100 mg/day, po for 3 days administered as single dose; format: functional; set-up: scale not given: the % may be the effect or the level left
[8] = test system: Homo sapiens; test: Increase in metabolic clearance of glucose in NIDD patient at 50 mg, po administered as single dose; format: functional
[9] = test system: Homo sapiens; test: Increase in carbohydrate oxidation in NIDD patient at 100 mg/day, po for 3 days administered as single dose; format: functional
[10] = test system: Homo sapiens; test: Reduction in plasma LD/HDL ratio in NIDD patient at 12.5 to 50 mg/day, po for 14 days; format: functional; set-up: scale not given: the % may be the effect or the level left
[11] = test system: Homo sapiens; test: Reduction in plasma TG level in NIDD patient at 12.5 to 50 mg/day, po for 14 days; format: functional; set-up: scale not given: the % may be the effect or the level left
[12] = test system: Homo sapiens; test: Reduction in beta-hydroxy butyrate level in NIDD patient at 12.5 to 50 mg/day, po for 14 days; format: functional; set-up: scale not given: the % may be the effect or the level left
[13] = test system: Homo sapiens; test: Reduction in FBG level in NIDD patient at 12.5 to 50 mg/day, po for 14 days; format: functional; set-up: scale not given: the % may be the effect or the level left
[14] = test system: Homo sapiens; test: Reduction in plasma TG level in NIDD patient at 50 to 200 mg/day, po bid for 3 days before meals; format: functional; set-up: scale not given: the % may be the effect or the level left
[15] = test system: Homo sapiens; test: Increase in plasma FFAs level in NIDD patient at 50 to 200 mg/day, po bid for 3 days before meals; format: functional
[16] = test system: Homo sapiens; test: Reduction in plasma cholesterol level in NIDD patient at 50 to 200 mg/day, po bid for 3 days before meals; format: functional; set-up: scale not given: the % may be the effect or the level left
[17] = test system: Homo sapiens; test: Reduction in BHB level in NIDD patient at 50 to 200 mg/day, po bid for 3 days before meals; format: functional; set-up: scale not given: the % may be the effect or the level left
[18] = test system: Homo sapiens; test: Reduction in basal hepatic glucose production in NIDD patient at 50 to 200 mg/day, po bid for 3 days before meals; format: functional; set-up: scale not given: the % may be the effect or the level left
[19] = test system: Homo sapiens; test: Reduction in fasting plasma glucose in NIDD patient at 50 to 200 mg/day, po bid for 3 days before meals; format: functional; set-up: scale not given: the % may be the effect or the level left
[20] = test system: Homo sapiens; test: Reduction in postprandial glucose in NIDD patient at 125 mg/day, po for 4 days (reference value: 10.5 mM); format: functional
[21] = test system: Rattus norvegicus; test: Reduction in fasting serum FFAs level in high fat diet fed STZ-treated rat at 12.5 mg/kg/day, po for up to 4 weeks measured 3 days to 1 week post dose; format: functional; set-up: scale not given: the % may be the effect or the level left
[22] = test system: Rattus norvegicus; test: Reduction in plasma TG in high fat diet fed STZ-treated rat at 12.5 mg/kg/day, po for up to 4 weeks measured 3 days to 1 week post dose; format: functional; set-up: scale not given: the % may be the effect or the level left
[23] = test system: Rattus norvegicus; test: Reduction in hepatic glucose production in STZ-treated rat at 12.5 to 25 mg/kg, po; format: functional; set-up: scale not given: the % may be the effect or the level left; details: dose mg/kg 12.5-25
[24] = test system: Rattus norvegicus; test: Reduction in fasting plasma glucose level in STZ-treated rat at 12.5 to 25 mg/kg, po; format: functional; set-up: scale not given: the % may be the effect or the level left; details: dose mg/kg 12.5-25
[25] = test system: Rattus norvegicus; test: Inhibition of CPT1 activity in blood KB level in STZ-treated fasted rat at 0.2 to 18 mg/kg, po; format: functional; details: dose mg/kg 0.2-18
[26] = test system: Rattus norvegicus; test: Reduction in blood KB level in STZ-treated fasted rat at 0.2 to 18 mg/kg, po; format: functional; set-up: scale not given: the % may be the effect or the level left; details: dose mg/kg 0.2-18
[27] = test system: Rattus norvegicus; test: Reduction in blood glucose in STZ-treated fasted rat at 0.2 to 18 mg/kg, po measured 4 hrs post dose; format: functional; set-up: scale not given: the % may be the effect or the level left; details: dose mg/kg 0.2-18
[28] = test system: Mus musculus; test: Reduction in glucose excretion in db/db mouse at 10 to 20 mg/kg/day, po dosed life long through food-admix; format: functional; set-up: scale not given: the % may be the effect or the level left
[29] = test system: Mus musculus; test: Reduction in urine volume in db/db mouse at 10 to 20 mg/kg/day, po dosed life long through food-admix; format: functional; set-up: scale not given: the % may be the effect or the level left
[30] = test system: Mus musculus; test: Reduction in daily water intake in db/db mouse at 10 to 20 mg/kg/day, po dosed life long through food-admix; format: functional; set-up: scale not given: the % may be the effect or the level left
[31] = test system: Mus musculus; test: Reduction in fasting glucose in db/db mouse at 10 to 20 mg/kg/day, po dosed life long through food-admix; format: functional; set-up: scale not given: the % may be the effect or the level left
[32] = test system: Mus musculus; test: Reduction in FBG level in db/db mouse at 50 mg/kg, po; format: functional; set-up: scale not given: the % may be the effect or the level left
[33] = test system: Mus musculus; test: Reduction in FBG level in db/db mouse at 10 mg/kg, po; format: functional; set-up: scale not given: the % may be the effect or the level left
[34] = test system: MOLM-13; test: Cytotoxicity against human MOLM13 cells assessed as reduction in cell viability; format: functional, cell-based
[35] = Cytotoxicity against human OCI-AML3 cells assessed as reduction in cell viability; format: functional, cell-based; details: OCI-AML-3
[36] = test system: Hepatocyte; test: Inhibition of fatty acid synthesis in rat hepatocytes; format: functional, cell-based

Work on `CCOC(=O)C1(CCCCCCOc2ccc(Cl)cc2)CO1` (racemic) [rac-ETOMOXIR] yielded an Activity [1] of 25%, an Activity [2] of 30% and an Activity [3] of 38%. The Activity [4] was 33%, the Activity [5] was 13.7% and the Activity [6] was 18%. It also gave an Activity [7] of 8%, an Activity [8] of 30% and an Activity [9] of 58%. The Activity [10] was 35%, the Activity [11] was 30% and the Activity [12] was 50%. For the same molecule, the Activity [13] was “<=45%”, the Activity [14] was 54% and the Activity [15] was 52%. For the same molecule, the Activity [16] was 24%, the Activity [17] was 44% and the Activity [18] was 18%. It also gave an Activity [19] of 18%, an Activity [20] of 8.3 mM and an Activity [21] of 56%. For the same molecule, the Activity [22] was 67%, the Activity [23] was 32% and the Activity [24] was 32%. For the same molecule, the “inhibition (INH)” value [25] was “<=99%”, the Activity [26] was 87% and the Activity [27] was 40%. The Activity [28] was 70%, the Activity [29] was 70% and the Activity [30] was 50%. It also gave an Activity [31] of 50%, an Activity [32] of 55% and an Activity [33] of 43%. The IC50 [34] was 51 µM, the IC50 [35] was 51 µM and the IC50 [36] was 2 µM.
